Laboratory results published in patent US8030498B2, “Benzoylpyrazole compounds and herbicides containing them” (Ishihara Sangyo Kaisha, Ltd., priority 2005, dated 2011).

Tests used:
[1] = system: barnyardgrass (Echinochloa crus-galli L.); assay: Test Example 1: foliar treatment, growth inhibition rate, barnyardgrass; format: in vivo; conditions: visually observed 17th to 23rd day after application
How it was run: (§1)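 Seeds were sown in upland field soil in pots. At the target leaf stage (corn 2.0–3.5; greenfoxtail 1.0–3.0; rice 1.0–2.5; wheat 1.7–3.4), the formulated compound, diluted at a water volume of 500 L/ha with 0.1 vol % spreader, was applied by small sprayer. Plants were rated by eye on days 17–23.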

[2] = system: crabgrass (Digitaria sanguinalis L.); assay: Test Example 1: foliar treatment, growth inhibition rate, crabgrass; format: in vivo; conditions: visually observed 17th to 23rd day after application
How it was run: (§2)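 Visual scoring of growth inhibition, 0% (untreated) to 100% (complete kill), on days 17–23 following post-emergence spray of formulated compound in water (500 L/ha, 0.1 vol % spreader); plants treated at set leaf stages, e.g. corn 2.0–3.5, wheat 1.7–3.4.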

[3] = system: greenfoxtail (Setaria viridis L.); assay: Test Example 1: foliar treatment, growth inhibition rate, greenfoxtail; format: in vivo; conditions: visually observed 17th to 23rd day after application
How it was run: (§3)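 Plants grown in upland soil in pots were sprayed on the foliage at set leaf stages (corn 2.0–3.5, greenfoxtail 1.0–3.0, rice 1.0–2.5, wheat 1.7–3.4 leaves) with wettable powder or emulsifiable concentrate formulations diluted in water at 500 L/ha plus 0.1 vol % spreader. Growth inhibition was scored visually 17–23 days later.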

[4] = system: redroot pigweed (Amaranthus retroflexus L.); assay: Test Example 1: foliar treatment, growth inhibition rate, redroot pigweed; format: in vivo; conditions: visually observed 17th to 23rd day after application
How it was run: as §2

[5] = system: prickly sida (Sida spinosa L.); assay: Test Example 1: foliar treatment, growth inhibition rate, prickly sida; format: in vivo; conditions: visually observed 17th to 23rd day after application
How it was run: as §2

[6] = system: velvetleaf (Abutilon theophrasti MEDIC.); assay: Test Example 1: foliar treatment, growth inhibition rate, velvetleaf; format: in vivo; conditions: visually observed 17th to 23rd day after application
How it was run: as §1

rice (Oryza sativa L.) = assay: Test Example 1: foliar treatment, growth inhibition rate, rice; format: in vivo; conditions: visually observed 17th to 23rd day after application
How it was run: as §3

wheat (Triticum spp.) = assay: Test Example 1: foliar treatment, growth inhibition rate, wheat; format: in vivo; conditions: visually observed 17th to 23rd day after application
How it was run: as §3

corn (Zea mays L.) = assay: Test Example 1: foliar treatment, growth inhibition rate, corn; format: in vivo; conditions: visually observed 17th to 23rd day after application
How it was run: as §3

[7] = system: soybean (Glycine max Merr.); assay: Test Example 1: foliar treatment, growth inhibition rate, soybean; format: in vivo; conditions: visually observed 17th to 23rd day after application
How it was run: as §2

barnyardgrass = assay: Test Example 2: soil application on the day after sowing, growth inhibition rate, barnyardgrass; format: in vivo, Echinochloa crus-galli L.; conditions: 250 g/ha active ingredient, observed on 19th to 24th day
How it was run: (§4)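 Seeds were sown in upland field soil in pots, and on the following day compounds formulated as wettable powders or emulsifiable concentrates were diluted in water (500 liter per hectare) and sprayed onto the soil at prescribed active-ingredient doses. Growth was scored visually 19–24 days later, 0 = untreated to 100% = complete kill.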

crabgrass = assay: Test Example 2: soil application on the day after sowing, growth inhibition rate, crabgrass; format: in vivo, Digitaria sanguinalis L.; conditions: 250 g/ha active ingredient, observed on 19th to 24th day
How it was run: as §4

greenfoxtail = assay: Test Example 2: soil application on the day after sowing, growth inhibition rate, greenfoxtail; format: in vivo, Setaria viridis L.; conditions: 250 g/ha active ingredient, observed on 19th to 24th day
How it was run: as §4

redroot pigweed = assay: Test Example 2: soil application on the day after sowing, growth inhibition rate, redroot pigweed; format: in vivo, Amaranthus retroflexus L.; conditions: 250 g/ha active ingredient, observed on 19th to 24th day
How it was run: as §4

prickly sida = assay: Test Example 2: soil application on the day after sowing, growth inhibition rate, prickly sida; format: in vivo, Sida spinosa L.; conditions: 250 g/ha active ingredient, observed on 19th to 24th day
How it was run: as §4

velvetleaf = assay: Test Example 2: soil application on the day after sowing, growth inhibition rate, velvetleaf; format: in vivo, Abutilon theophrasti MEDIC.; conditions: 250 g/ha active ingredient, observed on 19th to 24th day
How it was run: as §4

rice = assay: Test Example 2: soil application on the day after sowing, growth inhibition rate, rice; format: in vivo, Oryza sativa L.; conditions: 250 g/ha active ingredient, observed on 19th to 24th day
How it was run: as §4

wheat = assay: Test Example 2: soil application on the day after sowing, growth inhibition rate, wheat; format: in vivo, Triticum spp.; conditions: 250 g/ha active ingredient, observed on 19th to 24th day
How it was run: as §4

corn = assay: Test Example 2: soil application on the day after sowing, growth inhibition rate, corn; format: in vivo, Zea mays L.; conditions: 250 g/ha active ingredient, observed on 19th to 24th day
How it was run: as §4

soybean = assay: Test Example 2: soil application on the day after sowing, growth inhibition rate, soybean; format: in vivo, Glycine max Merr.; conditions: 250 g/ha active ingredient, observed on 19th to 24th day
How it was run: as §4

Row | SMILES | Growth inhibition rate (%) Barnyardgrass ([1]; 31 g/ha active ingredient) [%] | Growth inhibition rate (%) Crabgrass ([2]; 31 g/ha active ingredient) [%] | Growth inhibition rate (%) Greenfoxtail ([3]; 31 g/ha active ingredient) [%] | Growth inhibition rate (%) redroot pigweed ([4]; 31 g/ha active ingredient) [%] | Growth inhibition rate (%) Prickly sida ([5]; 31 g/ha active ingredient) [%] | Growth inhibition rate (%) Velvetleaf ([6]; 31 g/ha active ingredient) [%] | Growth inhibition rate (%) Rice (rice (Oryza sativa L.); 31 g/ha active ingredient) [%] | Growth inhibition rate (%) Wheat (wheat (Triticum spp.); 31 g/ha active ingredient) [%] | Growth inhibition rate (%) Corn (corn (Zea mays L.); 31 g/ha active ingredient) [%] | Growth inhibition rate (%) Soybean ([7]; 31 g/ha active ingredient) [%] | Growth inhibition rate (%) Barnyardgrass (barnyardgrass) [%] | Growth inhibition rate (%) Crabgrass (crabgrass) [%] | Growth inhibition rate (%) Greenfoxtail (greenfoxtail) [%] | Growth inhibition rate (%) redroot pigweed (redroot pigweed) [%] | Growth inhibition rate (%) Prickly sida (prickly sida) [%] | Growth inhibition rate (%) Velvetleaf (velvetleaf) [%] | Growth inhibition rate (%) Rice (rice) [%] | Growth inhibition rate (%) Wheat (wheat) [%] | Growth inhibition rate (%) Corn (corn) [%] | Growth inhibition rate (%) Soybean (soybean) [%] | also measured
1 | CCSC(=O)Oc1c(C(=O)c2ccc(S(C)(=O)=O)c(COCC(F)(F)F)c2Cl)cnn1C [compound 70] | 100 | 100 | 100 | 100 | 70 | 80 | 70 | 0 | 30 | 80 | 70 | 80 | 50 | 100 | 65 | 70 | 40 | 0 | 0 | 0 | 
2 | CCSC(=O)Oc1c(C(=O)c2ccc(S(C)(=O)=O)c(OC)c2C)cnn1C [Compound No. 35, 5-(ethylthio)carbonyloxy-1-methylpyrazol-4-yl 3-(methoxy)-2-methyl-4-(methylsulfonyl)phenyl ketone] |  |  |  | 90 | 40 |  |  |  |  | 90 |  |  |  |  |  |  |  |  |  |  | pest or weed control at 31 g/ha ([1]; Echinochloa crus-galli, 31 g/ha active ingredient): 90%; pest or weed control at 31 g/ha ([2]; Digitaria sanguinalis, 31 g/ha active ingredient): 80%; pest or weed control at 31 g/ha ([3]; Setaria viridis, 31 g/ha active ingredient): 100%; pest or weed control at 31 g/ha ([6]; Abutilon theophrasti, 31 g/ha active ingredient): 80%; pest or weed control at 31 g/ha (rice (Oryza sativa L.); Oryza sativa, 31 g/ha active ingredient): 80%; pest or weed control at 31 g/ha (wheat (Triticum spp.); Triticum, 31 g/ha active ingredient): 0%; pest or weed control at 31 g/ha (corn (Zea mays L.); Zea mays, 31 g/ha active ingredient): 0%; inhibition at 250 g/ha (barnyardgrass; Echinochloa crus-galli): 90%; inhibition at 250 g/ha (crabgrass; Digitaria sanguinalis): 100%; inhibition at 250 g/ha (greenfoxtail; Setaria viridis): 70%; inhibition at 250 g/ha (redroot pigweed; Amaranthus retroflexus): 95%; inhibition at 250 g/ha (prickly sida; Sida spinosa): 90%; inhibition at 250 g/ha (velvetleaf; Abutilon theophrasti): 20%; inhibition at 250 g/ha (rice; Oryza sativa): 90%; inhibition at 250 g/ha (wheat; Triticum aestivum): 0%; inhibition at 250 g/ha (corn; Zea mays): 0%; inhibition at 250 g/ha (soybean; Glycine max): 0%
3 | CCn1ncc(C(=O)c2ccc(S(C)(=O)=O)c(C(=O)OC)c2C)c1OC(=O)SC(C)(C)C [compound 91] | 95 | 98 | 98 | 98 | 75 | 95 | 90 | 0 | 20 | 98 | 90 | 95 | 60 | 100 | 95 | 70 | 80 | 0 | 0 | 30 | 
4 | CCSC(=O)Oc1c(C(=O)c2ccc(S(C)(=O)=O)c(OCC3CCCO3)c2C)cnn1C (centres unmarked) [compound 211] | 70 | 70 | 70 | 90 | 20 | 90 | 50 | 0 | 20 | 98 | 60 | 98 | 60 | 100 | 70 | 40 | 50 | 0 | 0 | 0 | 
5 | CCSC(=O)Oc1c(C(=O)c2ccc(S(C)(=O)=O)c(OC)c2Cl)cnn1C [compound 214] |  |  |  |  |  |  |  |  |  |  | 100 | 100 | 100 | 90 | 90 | 90 | 100 | 0 | 0 | 20 | Growth inhibition rate (%) Barnyardgrass ([1]; 63 g/ha active ingredient): 98%; Growth inhibition rate (%) Crabgrass ([2]; 63 g/ha active ingredient): 95%; Growth inhibition rate (%) Greenfoxtail ([3]; 63 g/ha active ingredient): 90%; Growth inhibition rate (%) redroot pigweed ([4]; 63 g/ha active ingredient): 100%; Growth inhibition rate (%) Prickly sida ([5]; 63 g/ha active ingredient): 70%; Growth inhibition rate (%) Velvetleaf ([6]; 63 g/ha active ingredient): 80%; Growth inhibition rate (%) Rice (rice (Oryza sativa L.); 63 g/ha active ingredient): 90%; Growth inhibition rate (%) Wheat (wheat (Triticum spp.); 63 g/ha active ingredient): 0%; Growth inhibition rate (%) Corn (corn (Zea mays L.); 63 g/ha active ingredient): 0%; Growth inhibition rate (%) Soybean ([7]; 63 g/ha active ingredient): 100%
6 | CCCOC(=O)c1c(S(C)(=O)=O)ccc(C(=O)c2cnn(CC)c2OC(=O)SCC)c1Cl [compound 60] | 95 | 90 | 60 | 80 | 70 | 70 | 70 | 0 | 0 | 50 | 100 | 100 | 60 | 95 | 70 | 60 | 40 | 0 | 0 | 20 | 
7 | CCSC(=O)Oc1c(C(=O)c2ccc(S(C)(=O)=O)c(OCCC3OCCO3)c2Cl)cnn1CC [compound 221] |  |  |  |  |  |  |  |  |  |  | 80 | 100 | 70 | 100 | 60 | 60 | 80 | 0 | 0 | 0 | Growth inhibition rate (%) Barnyardgrass ([1]; 63 g/ha active ingredient): 100%; Growth inhibition rate (%) Crabgrass ([2]; 63 g/ha active ingredient): 50%; Growth inhibition rate (%) Greenfoxtail ([3]; 63 g/ha active ingredient): 50%; Growth inhibition rate (%) redroot pigweed ([4]; 63 g/ha active ingredient): 80%; Growth inhibition rate (%) Prickly sida ([5]; 63 g/ha active ingredient): 40%; Growth inhibition rate (%) Velvetleaf ([6]; 63 g/ha active ingredient): 60%; Growth inhibition rate (%) Rice (rice (Oryza sativa L.); 63 g/ha active ingredient): 20%; Growth inhibition rate (%) Wheat (wheat (Triticum spp.); 63 g/ha active ingredient): 0%; Growth inhibition rate (%) Corn (corn (Zea mays L.); 63 g/ha active ingredient): 0%; Growth inhibition rate (%) Soybean ([7]; 63 g/ha active ingredient): 100%
